Experimental data: patent US9371280B2, “Substituted pyrrolidine-2-carboxamides” (Hoffmann-La Roche Inc., priority 2012, dated 2016)

Biological target: interaction between p53 and MDM2 proteins (recombinant GST-tagged MDM2) (Homo sapiens, UniProt Q00987)
Experiment: HTRF assay of inhibition of the p53-MDM2 interaction (GST-MDM2 / biotinylated p53 peptide);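 note: FRET read-out from Eu-labelled anti-GST antibody to streptavidin-APC, with 90 nM N-terminally biotinylated p53 peptide and 160 ng/ml GST-MDM2 in Tris-borate saline containing 1 mM DTT, 384-well format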
Format: binding
Settings: HTRF, 0.02% BSA, 37° C. 1 h

Sequence of interaction between p53 and MDM2 proteins (recombinant GST-tagged MDM2) (Q00987 whole entry): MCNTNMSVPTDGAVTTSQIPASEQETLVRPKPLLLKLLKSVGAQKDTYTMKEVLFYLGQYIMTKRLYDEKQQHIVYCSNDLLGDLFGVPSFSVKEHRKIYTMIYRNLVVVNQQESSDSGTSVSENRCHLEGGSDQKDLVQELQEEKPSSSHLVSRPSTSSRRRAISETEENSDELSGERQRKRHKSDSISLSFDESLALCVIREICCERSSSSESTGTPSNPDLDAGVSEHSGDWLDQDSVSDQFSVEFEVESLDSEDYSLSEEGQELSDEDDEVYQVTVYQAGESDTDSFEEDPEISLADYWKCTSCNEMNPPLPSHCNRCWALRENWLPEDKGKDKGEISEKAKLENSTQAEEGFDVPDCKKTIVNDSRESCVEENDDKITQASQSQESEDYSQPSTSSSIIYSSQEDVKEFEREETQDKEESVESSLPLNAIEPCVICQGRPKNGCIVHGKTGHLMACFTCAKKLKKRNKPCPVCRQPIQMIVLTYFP

| IC50 | SMILES |
| --- | --- |
| 56.4 nM | COc1cc(C(=O)OCC(=O)N[C@@H](CCC(=O)OCc2ccccc2)C(=O)OCc2ccccc2)ccc1NC(=O)[C@@H]1N[C@@H](CC(C)(C)C)[C@](C#N)(c2ccc(Cl)cc2F)[C@H]1c1cccc(Cl)c1F [Example 70, (S)-2-[2-(4-{[(2R,3S,4R,5S)-4-(4-Chloro-2-fluoro-phenyl)-3-(3-chloro-2-fluoro-phenyl)-4-cyano-5-(2,2-dimethyl-propyl)-pyrrolidine-2-carbonyl]-amino}-3-methoxy-benzoyloxy)-acetylamino]-pentanedioic acid dibenzyl ester] |
| 5.94 nM | COc1cc(C(=O)OCC(=O)N[C@@H](CCC(=O)O)C(=O)O)ccc1NC(=O)[C@@H]1N[C@@H](CC(C)(C)C)[C@](C#N)(c2ccc(Cl)cc2F)[C@H]1c1cccc(Cl)c1F [Example 71, (S)-2-[2-(4-{[(2R,3S,4R,5S)-4-(4-Chloro-2-fluoro-phenyl)-3-(3-chloro-2-fluoro-phenyl)-4-cyano-5-(2,2-dimethyl-propyl)-pyrrolidine-2-carbonyl]-amino}-3-methoxy-benzoyloxy)-acetylamino]-pentanedioic acid] |
| 20.3 nM | COCCOCCOCCOC(=O)COC(=O)c1ccc(NC(=O)[C@@H]2N[C@@H](CC(C)(C)C)[C@](C#N)(c3ccc(Cl)cc3F)[C@H]2c2cccc(Cl)c2F)c(OC)c1 [Example 72, 4-{[(2R,3S,4R,5S)-4-(4-Chloro-2-fluoro-phenyl)-3-(3-chloro-2-fluoro-phenyl)-4-cyano-5-(2,2-dimethyl-propyl)-pyrrolidine-2-carbonyl]-amino}-3-methoxy-benzoic acid 2-[2-(2-methoxy-ethoxy)-ethoxy]-ethoxycarbonylmethyl ester] |
| 19.6 nM | COCCOCCOCCOCCOC(=O)COC(=O)c1ccc(NC(=O)[C@@H]2N[C@@H](CC(C)(C)C)[C@](C#N)(c3ccc(Cl)cc3F)[C@H]2c2cccc(Cl)c2F)c(OC)c1 [Example 73, 4-{[(2R,3S,4R,5S)-4-(4-Chloro-2-fluoro-phenyl)-3-(3-chloro-2-fluoro-phenyl)-4-cyano-5-(2,2-dimethyl-propyl)-pyrrolidine-2-carbonyl]-amino}-3-methoxy-benzoic acid 2-{2-[2-(2-methoxy-ethoxy)-ethoxy]-ethoxy}-ethoxycarbonylmethyl ester] |
| 9.2 nM | COc1cc(C(=O)OCC(=O)NCCOCCOCCOCCO)ccc1NC(=O)[C@@H]1N[C@@H](CC(C)(C)C)[C@](C#N)(c2ccc(Cl)cc2F)[C@H]1c1cccc(Cl)c1F [Example 75, 4-{[(2R,3S,4R,5S)-4-(4-Chloro-2-fluoro-phenyl)-3-(3-chloro-2-fluoro-phenyl)-4-cyano-5-(2,2-dimethyl-propyl)-pyrrolidine-2-carbonyl]-amino}-3-methoxy-benzoic acid (2-{2-[2-(2-hydroxy-ethoxy)-ethoxy]-ethoxy}-ethylcarbamoyl)-methyl ester] |
| 6.31 nM | COc1cc(C(=O)NCCOCCOCCOCCN)ccc1NC(=O)[C@@H]1N[C@@H](CC(C)(C)C)[C@](C#N)(c2ccc(Cl)cc2F)[C@H]1c1cccc(Cl)c1F [Example 77, (2R,3S,4R,5S)-4-(4-Chloro-2-fluoro-phenyl)-3-(3-chloro-2-fluoro-phenyl)-4-cyano-5-(2,2-dimethyl-propyl)-pyrrolidine-2-carboxylic acid [4-(2-{2-[2-(2-amino-ethoxy)-ethoxy]-ethoxy}-ethylcarbamoyl)-2-methoxy-phenyl]-amide] |

| SMILES | IC50 |
| --- | --- |
| COc1cc(C(=O)NCCOCCOCCOCCNC(=O)c2ccc(NC(=O)[C@@H]3N[C@@H](CC(C)(C)C)[C@](C#N)(c4ccc(Cl)cc4F)[C@H]3c3cccc(Cl)c3F)c(OC)c2)ccc1NC(=O)[C@@H]1N[C@@H](CC(C)(C)C)[C@](C#N)(c2ccc(Cl)cc2F)[C@H]1c1cccc(Cl)c1F [Example 76, (2R,3S,4R,5S)-4-(4-Chloro-2-fluoro-phenyl)-3-(3-chloro-2-fluoro-phenyl)-4-cyano-5-(2,2-dimethyl-propyl)-pyrrolidine-2-carboxylic acid [4-(2-{2-[2-(2-amino-ethoxy)-ethoxy]-ethoxy}-ethylcarbamoyl)-2-methoxy-phenyl]-amide, dimer] | 64.3 nM |
| C=CCOC(=O)[C@H](CCCCNC(=O)OC(C)(C)C)NC(=O)COC(=O)c1ccc(NC(=O)[C@@H]2N[C@@H](CC(C)(C)C)[C@](C#N)(c3ccc(Cl)cc3F)[C@H]2c2cccc(Cl)c2F)c(OC)c1 [Example 78, 4-{[(2R,3S,4R,5S)-4-(4-Chloro-2-fluoro-phenyl)-3-(3-chloro-2-fluoro-phenyl)-4-cyano-5-(2,2-dimethyl-propyl)-pyrrolidine-2-carbonyl]-amino}-3-methoxy-benzoic acid ((S)-1-allyloxycarbonyl-5-tert-butoxycarbonylamino-pentylcarbamoyl)-methyl ester] | 16.6 nM |
